Laboratory results published in PubChem BioAssay AID1919016 (Molecular Pharmacology Branch, DTP, NCI, 2023).
Values joined by “and” are separate entries in the source; they are usually repeats but may differ in a detail not shown here. Equal entries are not always repeated.

Tested on: NCI-H196 complex spheroid growth, percent test/control
Test: Anticancer human tumor NCI-H196 cell line growth inhibition [AhR];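 note: seven days of drug exposure starting three days after plating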;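 for viability, T/C: 100% = DMSO vehicle control wells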
Settings: for viability, T/C: stronger effect = lower value
Outline: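 Complex tumor spheroids co-cultured with HUVEC and human MSC stroma; AhR antagonists tested in combination with standard-of-care and investigational agents. Top concentration at or near clinical Cmax (else 10 microM), half-log dilutions; growth expressed as percent test/control.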

[1] = curve of first compound, second compound 0.1 µM
[2] = curve of first compound, second compound 0.316 µM
[3] = curve of first compound, second compound 1 µM
[4] = curve of first compound, second compound 3.16 µM
[5] = curve of first compound, second compound 10 µM
[6] = second compound 0.1 µM, first compound 0.00949 µM
[7] = second compound 0.1 µM, first compound 0.03 µM
[8] = second compound 0.1 µM, first compound 0.0949 µM
[9] = second compound 0.1 µM, first compound 0.3 µM
[10] = second compound 0.316 µM, first compound 0.00949 µM
[11] = second compound 0.316 µM, first compound 0.03 µM
[12] = second compound 0.316 µM, first compound 0.0949 µM
[13] = second compound 0.316 µM, first compound 0.3 µM
[14] = second compound 1 µM, first compound 0.00949 µM
[15] = second compound 1 µM, first compound 0.03 µM
[16] = second compound 1 µM, first compound 0.0949 µM
[17] = second compound 1 µM, first compound 0.3 µM
[18] = second compound 3.16 µM, first compound 0.00949 µM
[19] = second compound 3.16 µM, first compound 0.03 µM
[20] = second compound 3.16 µM, first compound 0.0949 µM
[21] = second compound 3.16 µM, first compound 0.3 µM
[22] = second compound 10 µM, first compound 0.00949 µM
[23] = second compound 10 µM, first compound 0.03 µM
[24] = second compound 10 µM, first compound 0.0949 µM
[25] = second compound 10 µM, first compound 0.3 µM

| IC50 [1] | IC50 [2] | IC50 [3] | IC50 [4] | IC50 [5] | SMILES | viability, T/C [6] | viability, T/C [7] | viability, T/C [8] | viability, T/C [9] | viability, T/C [10] | viability, T/C [11] | viability, T/C [12] | viability, T/C [13] | viability, T/C [14] | viability, T/C [15] | viability, T/C [16] | viability, T/C [17] | viability, T/C [18] | viability, T/C [19] | viability, T/C [20] | also measured |
| --- | --- | --- | --- | --- | --- | --- | --- | --- | --- | --- | --- | --- | --- | --- | --- | --- | --- | --- | --- | --- | --- |
| > 300 nM | > 300 nM | > 300 nM | > 300 nM | > 300 nM | CCc1c2c(nc3ccc(O)cc13)-c1cc3c(c(=O)n1C2)COC(=O)[C@]3(O)CC + CC(CO)NC(=O)c1cc(-c2ccc(Cl)cc2)nn(-c2cnn(C)c2)c1=O | 107% | 105% | 103% | 92.9% | 113% | 113% | 108% | 92.2% | 117% | 98.4% | 101% | 81.8% | 105% | 104% | 101% | viability, T/C (second compound 0.1 µM, first compound 0.000949 µM): 98%; viability, T/C (second compound 0.1 µM, first compound 0.003 µM): 104%; viability, T/C (second compound 0.316 µM, first compound 0.000949 µM): 108%; viability, T/C (second compound 0.316 µM, first compound 0.003 µM): 116%; viability, T/C (second compound 1 µM, first compound 0.000949 µM): 108%; viability, T/C (second compound 1 µM, first compound 0.003 µM): 115%; viability, T/C (second compound 3.16 µM, first compound 0.000949 µM): 112%; viability, T/C (second compound 3.16 µM, first compound 0.003 µM): 110%; viability, T/C [21]: 85.3%; viability, T/C (second compound 10 µM, first compound 0.000949 µM): 111%; viability, T/C (second compound 10 µM, first compound 0.003 µM): 111%; viability, T/C [22]: 112%; viability, T/C [23]: 107%; viability, T/C [24]: 107%; viability, T/C [25]: 87.7% |
| > 3000 nM | > 3000 nM | > 3000 nM | > 3000 nM | > 3000 nM | CCN(c1cc(-c2ccc(CN3CCOCC3)cc2)cc(C(=O)NCc2c(C)cc(C)[nH]c2=O)c1C)C1CCOCC1 + Cc1cncc(-c2nc(NCCc3c[nH]c4ccccc34)c3ncn(C(C)C)c3n2)c1 | 103% | 97.3% | 97.7% | 96.9% | 106% | 98.8% | 102% | 92.4% | 103% | 101% | 111% | 97% | 109% | 105% | 114% | viability, T/C (second compound 0.1 µM, first compound 0.949 µM): 99.3%; viability, T/C (second compound 0.1 µM, first compound 3 µM): 97.3%; viability, T/C (second compound 0.316 µM, first compound 0.949 µM): 99%; viability, T/C (second compound 0.316 µM, first compound 3 µM): 98.8%; viability, T/C (second compound 1 µM, first compound 0.949 µM): 92.2%; viability, T/C (second compound 1 µM, first compound 3 µM): 93.3%; viability, T/C [21]: 106%; viability, T/C (second compound 3.16 µM, first compound 0.949 µM): 104%; viability, T/C (second compound 3.16 µM, first compound 3 µM): 121%; viability, T/C [22]: 86.9%; viability, T/C [23]: 81.2%; viability, T/C [24]: 86.5%; viability, T/C [25]: 81.1%; viability, T/C (second compound 10 µM, first compound 0.949 µM): 87.2%; viability, T/C (second compound 10 µM, first compound 3 µM): 90.1% |
|  |  |  |  |  | Nc1ncn(C2CC(O)C(CO)O2)c(=O)n1 (configuration not stated) |  |  |  |  |  |  |  |  |  |  |  |  |  |  |  | viability, T/C (compound 0.00316 µM): 110% and 113% and 104%; viability, T/C (compound 0.01 µM): 96.1% and 116% and 107%; viability, T/C (compound 0.0316 µM): 93.2% and 102% and 110%; viability, T/C (compound 0.1 µM): 97.1% and 113% and 103%; viability, T/C (compound 0.316 µM): 105% and 124% and 93.8%; viability, T/C (compound 1 µM): 116% and 104% and 105%; IC50 (curve of compound): > 1000 nM |
